Where a name gives a salt, the structure may show the parent alone.
Legend:
physchem = conditions: water

| solubility (physchem) [mg/mL] | Compound | solubility in water (Solubility in water) [mg/mL] |
| --- | --- | --- |
| 600 | CCN(CC)C(=O)C1(c2ccccc2)CC1CN (centres unmarked) [milnacipran hydrochloride] | – |
| – | baquimast | 0.23 |

— US6709675B1, “Thixotropic formulations for filling capsules” (Pierre Fabre Medicament, priority 1998, dated 2004)
